In patent US11524968B2, “Heterocyclic compound as a protein kinase inhibitor” (HK inno.N Corporation, priority 2017, dated 2022):

biological target: JAK1 (Homo sapiens (Human), UniProt P23458); assay: Analysis of JAK1 activity inhibition ability (ADP-Glo Kinase Assay); format: biochemical; conditions: JAK1 enzyme, ADP-Glo luminescence, ATP 250 uM, IRS-itide substrate, 30° C. 40 minutes; read-out: IC50
Procedure, shortened: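 ADP-Glo luminescence read-out of ADP production, with IC50 taken as the concentration halving JAK1 activity relative to control. Enzyme was incubated 40 min at 30 °C with compound, IRS-itide (40 ng/mL) and ATP (250 uM), concentrations as prepared in pH 7.5 Tris-HCl/MgCl2/BSA/DTT buffer.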

Sequence of JAK1 (P23458 whole entry): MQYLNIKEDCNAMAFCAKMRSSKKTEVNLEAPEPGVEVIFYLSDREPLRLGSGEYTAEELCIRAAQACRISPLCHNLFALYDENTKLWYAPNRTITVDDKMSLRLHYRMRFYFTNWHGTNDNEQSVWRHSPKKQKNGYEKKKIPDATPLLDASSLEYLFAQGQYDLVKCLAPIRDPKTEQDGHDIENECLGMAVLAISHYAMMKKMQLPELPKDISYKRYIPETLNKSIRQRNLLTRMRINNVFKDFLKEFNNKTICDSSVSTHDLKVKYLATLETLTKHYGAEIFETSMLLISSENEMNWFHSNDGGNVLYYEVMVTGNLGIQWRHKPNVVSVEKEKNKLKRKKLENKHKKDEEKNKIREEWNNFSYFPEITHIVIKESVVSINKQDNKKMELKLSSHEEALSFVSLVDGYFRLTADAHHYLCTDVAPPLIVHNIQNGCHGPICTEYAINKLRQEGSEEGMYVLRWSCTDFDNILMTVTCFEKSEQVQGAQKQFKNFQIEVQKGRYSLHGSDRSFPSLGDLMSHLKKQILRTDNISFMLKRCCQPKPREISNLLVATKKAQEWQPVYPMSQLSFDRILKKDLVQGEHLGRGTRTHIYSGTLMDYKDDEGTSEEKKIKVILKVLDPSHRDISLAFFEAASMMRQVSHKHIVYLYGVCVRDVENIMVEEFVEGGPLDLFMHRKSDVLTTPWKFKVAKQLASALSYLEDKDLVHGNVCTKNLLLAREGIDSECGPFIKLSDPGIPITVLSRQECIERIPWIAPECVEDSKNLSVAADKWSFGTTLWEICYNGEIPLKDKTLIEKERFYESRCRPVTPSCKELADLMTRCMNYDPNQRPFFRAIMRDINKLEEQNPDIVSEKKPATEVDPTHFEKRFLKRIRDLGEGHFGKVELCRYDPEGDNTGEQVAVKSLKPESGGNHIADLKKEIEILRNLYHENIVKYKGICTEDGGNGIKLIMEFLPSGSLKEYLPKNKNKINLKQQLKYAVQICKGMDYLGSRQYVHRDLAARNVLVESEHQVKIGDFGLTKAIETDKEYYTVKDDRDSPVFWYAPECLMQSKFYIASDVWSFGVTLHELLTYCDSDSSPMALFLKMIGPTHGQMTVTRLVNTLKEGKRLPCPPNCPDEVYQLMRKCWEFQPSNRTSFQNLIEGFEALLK

| IC50 | Compound |
| --- | --- |
| 20 to 200 nM | CC1CN(C(=O)c2ccc(F)cc2Cl)CC=C1c1cc(NC(=O)C2CC2)nc2[nH]ccc12 (stereo not drawn) [Example 355, N-(4-(1-(2-chloro-4-fluorobenzoyl)-3-methyl-1,2,3,6-tetrahydropyridin-4-yl)-1H-pyrrolo[2,3-b]pyridin-6-yl)cyclopropanecarboxamide] |
| 20 to 200 nM | N#CCC(=O)N1C2CCC1CN(c1nc(NC(=O)C3CC3)nc3[nH]ccc13)C2 [Example 688, (N-(4-(8-(2-cyanoacetyl)-3,8-diazabicyclo[3.2.1]octan-3-yl)-7H-pyrrolo[2,3-d]pyrimidin-2-yl)cyclopropanecarboxamide)] |
| < 20 nM | C[C@@H]1CN(C(=O)c2cccc(Br)c2)CC=C1c1cc(NC(=O)C2CC2)nc2[nH]ccc12 [Example 397, (S)—N-(4-(1-(3-bromobenzoyl)-3-methyl-1,2,3,6-tetrahydropyridin-4-yl)-1H-pyrrolo[2,3-b]pyridin-6-yl)cyclopropanecarboxamide] |
| 20 to 200 nM | CC1(C)CN(S(=O)(=O)CCCC#N)CC=C1c1cc(NC(=O)C2CC2)nc2[nH]ccc12 [Example 180, N-(4-(1-((3-cyanopropyl)sulfonyl)-3,3-dimethyl-1,2,3,6-tetrahydropyridin-4-yl)-1H-pyrrolo[2,3-b]pyridin-6-yl)cyclopropanecarboxamide] |
| 20 to 200 nM | CCNC(=S)Nc1ccc(-c2nc(NC(=O)C3CC3)nc3[nH]ccc23)cc1 [Example 466, N-(4-(4-(3-ethylthioureido)phenyl)-7H-pyrrolo[2,3-d]pyrimidin-2-yl)cyclopropanecarboxamide] |
| 20 to 200 nM | N#CCCC(=O)N1CC=C(c2cc(NC(=O)C3CC3)nc3[nH]ccc23)C2(CC2)C1 [Example 302, N-(4-(5-(3-cyanopropanoyl)-5-azaspiro[2.5]oct-7-en-8-yl)-1H-pyrrolo[2,3-b]pyridin-6-yl)cyclopropanecarboxamide] |
| 20 to 200 nM | N#Cc1ccc(S(=O)(=O)Nc2ccc(-c3cc(NC(=O)C4CC4)nc4[nH]ccc34)cc2)cc1 [Example 21, N-(4-(4-((4-cyanophenyl)sulfonamido)phenyl)-1H-pyrrolo[2,3-b]pyridin-6-yl)cyclopropanecarboxamide] |
| < 20 nM | O=C(Nc1cc(-c2ccc(NS(=O)(=O)CCCF)c(F)c2)c2cc[nH]c2n1)C1CC1 [Example 76, N-(4-(3-fluoro-4-((3-fluoropropyl)sulfonamido)phenyl)-1H-pyrrolo[2,3-b]pyridin-6-yl)cyclopropanecarboxamide] |
| < 20 nM | Cc1cc(NS(=O)(=O)CCCC(F)(F)F)ccc1-c1cc(NC(=O)C2CC2)nc2[nH]ccc12 [Example 117, N-(4-(2-methyl-4-((4,4,4-trifluorobutyl)sulfonamido)phenyl)-1H-pyrrolo[2,3-b]pyridin-6-yl)cyclopropanecarboxamide] |
| > 200 nM | O=C(Nc1nc(-c2ccc(NS(=O)(=O)c3ccc(F)c(F)c3)cc2)c2nc[nH]c2n1)C1CC1 [Example 208, N-(6-(4-((3,4-difluorophenyl)sulfonamido)phenyl)-9H-purin-2-yl)cyclopropanecarboxamide] |
| < 20 nM | CCCCS(=O)(=O)Nc1ccc(-c2cc(NC(=O)C3CC3)nc3[nH]ccc23)cc1 [Example 6, N-(4-(4-(butylsulfonamido)phenyl)-1H-pyrrolo[2,3-b]pyridin-6-yl)cyclopropanecarboxamide] |
| > 200 nM | N#Cc1ccc(S(=O)(=O)Nc2ccc(-c3nc(NC(=O)C4CC4)nc4[nH]ccc34)cc2)cn1 [Example 197, N-(4-(4-((6-cyanopyridine)-3-sulfonamido)phenyl)-7H-pyrrolo[2,3-d]pyrimidin-2-yl)cyclopropanecarboxamide] |
| 20 to 200 nM | CC1CN(C(=O)c2ccc[nH]2)CC=C1c1cc(NC(=O)C2CC2)nc2[nH]ccc12 (stereo not drawn) [Example 313, N-(4-(3-methyl-1-(1H-pyrrole-2-carbonyl)-1,2,3,6-tetrahydropyridin-4-yl)-1H-pyrrolo[2,3-b]pyridin-6-yl)cyclopropanecarboxamide] |
| 20 to 200 nM | N#CCC1(CS(=O)(=O)N2CC=C(c3cc(NC(=O)C4CC4)nc4[nH]ccc34)CC2)CC1 [Example 171, N-(4-(1-(((1-(cyanomethyl)cyclopropyl)methyl)sulfonyl)-1,2,3,6-tetrahydropyridin-4-yl)-1H-pyrrolo[2,3-b]pyridin-6-yl)cyclopropanecarboxamide] |
| < 20 nM | O=C(Nc1cc(-c2ccc(CN3CCS(=O)(=O)CC3)cc2)c2cc[nH]c2n1)C1CC1 [Example 584, N-(4-(4-((1,1-dioxidothiomorpholino)methyl)phenyl)-1H-pyrrolo[2,3-b]pyridin-6-yl)cyclopropanecarboxamide] |
| < 20 nM | O=C(Nc1cc(C2=CCC(NS(=O)(=O)CC3CC3)CC2)c2cc[nH]c2n1)C1CC1 (stereo not drawn) [Example 161, N-(4-(4-((cyclopropylmethyl)sulfonamido)cyclohex-1-en-1-yl)-1H-pyrrolo[2,3-b]pyridin-6-yl)cyclopropanecarboxamide] |

| IC50 | Compound |
| --- | --- |
| < 20 nM | CC1CN(C(=O)c2ccnc(F)c2)CC=C1c1cc(NC(=O)C2CC2)nc2[nH]ccc12 (stereo not drawn) [Example 309, N-(4-(1-(2-fluoroisonicotinoyl)-3-methyl-1,2,3,6-tetrahydropyridin-4-yl)-1H-pyrrolo[2,3-b]pyridin-6-yl)cyclopropanecarboxamide] |
| 20 to 200 nM | O=C(Nc1cc(-c2ccc(CC(=O)N3CCSCC3)cc2)c2cc[nH]c2n1)C1CC1 [Example 560, N-(4-(4-(2-oxo-2-thiomorpholinoethyl)phenyl)-1H-pyrrolo[2,3-b]pyridin-6-yl)cyclopropanecarboxamide] |
| 20 to 200 nM | CCCS(=O)(=O)Nc1c(F)cc(-c2cc(NC(=O)C3CC3)nc3[nH]ccc23)cc1F [Example 82, N-(4-(3,5-difluoro-4-(propylsulfonamido)phenyl)-1H-pyrrolo[2,3-b]pyridin-6-yl)cyclopropanecarboxamide] |
| 20 to 200 nM | Cc1ccsc1C(=O)N1CC=C(c2cc(NC(=O)C3CC3)nc3[nH]ccc23)C(C)C1 (stereo not drawn) [Example 342, N-(4-(3-methyl-1-(3-methylthiophene-2-carbonyl)-1,2,3,6-tetrahydropyridin-4-yl)-1H-pyrrolo[2,3-b]pyridin-6-yl)cyclopropanecarboxamide] |
| 20 to 200 nM | O=C(NC1CC=C(c2cc(NC(=O)C3CC3)nc3[nH]ccc23)CC1)c1ccccc1 (stereo not drawn) [Example 243, N-(4-(6-(cyclopropanecarboxamido)-1H-pyrrolo[2,3-b]pyridin-4-yl)cyclohex-3-en-1-yl)benzamide] |
| > 200 nM | CCCCNC(=O)N1CCC(c2cc(NC(=O)C3CC3)nc3[nH]ccc23)CC1 [Example 653, N-butyl-4-(6-(cyclopropanecarboxamido)-1H-pyrrolo[2,3-b]pyridin-4-yl)piperidine-1-carboxamide] |
| 20 to 200 nM | O=C(Nc1cc(C2=CCN(C(=O)c3ccoc3)CC2)c2cc[nH]c2n1)C1CC1 [Example 278, N-(4-(1-(furan-3-carbonyl)-1,2,3,6-tetrahydropyridin-4-yl)-1H-pyrrolo[2,3-b]pyridin-6-yl)cyclopropanecarboxamide] |
| 20 to 200 nM | CCCCS(=O)(=O)Oc1ccc(-c2cc(NC(=O)C3CC3)nc3[nH]ccc23)cc1 [Example 632, 4-(6-(cyclopropanecarboxamido)-1H-pyrrolo[2,3-b]pyridin-4-yl)phenyl butane-1-sulfonate] |
| > 200 nM | O=C(Nc1cc(C2CCN(C(=O)NCC(F)(F)F)CC2)c2cc[nH]c2n1)C1CC1 [Example 654, 4-(6-(cyclopropanecarboxamido)-1H-pyrrolo[2,3-b]pyridin-4-yl)-N-(2,2,2-trifluoroethyl)piperidine-1-carboxamide] |
| < 20 nM | O=C(Nc1cc(-c2ccc(NS(=O)(=O)N3CCCCC3)c(F)c2)c2cc[nH]c2n1)C1CC1 [Example 224, N-(4-(3-fluoro-4-(piperidine-1-sulfonamido)phenyl)-1H-pyrrolo[2,3-b]pyridin-6-yl)cyclopropanecarboxamide] |
| 20 to 200 nM | O=C(Nc1cc(C2=CCC(NS(=O)(=O)C(F)(F)F)CC2)c2cc[nH]c2n1)C1CC1 (stereo not drawn) [Example 153, N-(4-(4-((trifluoromethyl)sulfonamido)cyclohex-1-en-1-yl)-1H-pyrrolo[2,3-b]pyridin-6-yl)cyclopropanecarboxamide] |
| 20 to 200 nM | CCS(=O)(=O)N1CCC(n2cc(-c3cc(NC(=O)C4CC4)nc4[nH]ccc34)cn2)CC1 [Example 608, N-(4-(1-(1-(ethylsulfonyl)piperidin-4-yl)-1H-pyrazol-4-yl)-1H-pyrrolo[2,3-b]pyridin-6-yl)cyclopropanecarboxamide] |
| > 200 nM | O=C(Nc1cc(-c2ccc(NCc3ccccc3)cc2)c2cc[nH]c2n1)C1CC1 [Example 472, N-(4-(4-(benzylamino)phenyl)-1H-pyrrolo[2,3-b]pyridin-6-yl)cyclopropanecarboxamide] |
| 20 to 200 nM | N#CCCCS(=O)(=O)Nc1cc(F)c(-c2cc(NC(=O)C3CC3)nc3[nH]ccc23)cc1F [Example 104, N-(4-(4-((3-cyanopropyl)sulfonamido)-2,5-difluorophenyl)-1H-pyrrolo[2,3-b]pyridin-6-yl)cyclopropanecarboxamide] |
| > 200 nM | CN(C)c1nc(-c2ccc(NS(=O)(=O)c3ccc(F)c(F)c3)cc2)c2cc[nH]c2n1 [Example 718, N-(4-(2-(dimethylamino)-7H-pyrrolo[2,3-d]pyrimidin-4-yl)phenyl)-3,4-difluorobenzenesulfonamide] |

| Compound | IC50 |
| --- | --- |
| N#CCCCS(=O)(=O)N1C2CCC1CN(c1cc(NC(=O)C3CC3)nc3[nH]ccc13)C2 [Example 664, N-(4-(8-((3-cyanopropyl)sulfonyl)-3,8-diazabicyclo[3.2.1]octan-3-yl)-1H-pyrrolo[2,3-b]pyridin-6-yl)cyclopropanecarboxamide] | 20 to 200 nM |
| N#CCC1(N2CC=C(c3cc(NC(=O)C4CC4)nc4[nH]ccc34)CC2)CN(C2CCNCC2)C1 [Example 620, N-(4-(1-(3-(cyanomethyl)-1-(piperidin-4-yl)azetidin-3-yl)-1,2,3,6-tetrahydropyridin-4-yl)-1H-pyrrolo[2,3-b]pyridin-6-yl)cyclopropanecarboxamide] | > 200 nM |
